Measured values published in patent US20230085307A1, “PYRIDAZINONE COMPOUND AND HERBICIDE” (NISSAN CHEMICAL CORPORATION, priority 2019, published 2023).

Columns and labels:
[1] = system: persian speedwell; assay: Test Example 4: herbicidal effect by soil treatment (Table 19, symbol R); type: in vivo, Persian speedwell (Veronica persica)
Method in brief: (§1)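 Emulsion of test compound, water-diluted to predetermined amount, sprayed on soil after sowing (seed depth ~1.5 cm, sterilized diluvial soil). Greenhouse, 25–30° C. Effect graded at three weeks post-spray.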

[2] = system: redroot pigweed; assay: Test Example 4: herbicidal effect by soil treatment (Table 19, symbol N); type: in vivo, redroot pigweed (Amaranthus retroflexus)
Method in brief: as §1

[3] = system: southern crabgrass; assay: Test Example 4: herbicidal effect by soil treatment (Table 19, symbol F); type: in vivo, southern crabgrass (Digitaria ciliaris)
Method in brief: as §1

[4] = system: barnyard grass; assay: Test Example 3: herbicidal effect by foliage application, Wagner pot (Table 18, symbol H); type: in vivo, barnyard grass (Echinochloa crus-galli)
Method in brief: (§2)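 Plants were sown in alluvial soil held under 0.1–0.5 cm standing water and grown 14 days in a greenhouse at 25–30 °C. An emulsifiable formulation, water-diluted to the set dose, was then sprayed onto the foliage, and effects were scored three weeks later using previously defined criteria.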

[5] = system: rice flat sedge; assay: Test Example 3: herbicidal effect by foliage application, Wagner pot (Table 18, symbol E); type: in vivo, rice flat sedge (Cyperus iria); conditions: 80 g/ha
Method in brief: as §2

[6] = system: southern crabgrass; assay: Test Example 5: herbicidal effect by foliage application, plastic box (Table 20, symbol F); type: in vivo, southern crabgrass (Digitaria ciliaris); conditions: foliage application
Method in brief: (§3)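 Post-emergence foliar test in sterilized diluvial soil. Compound applied as water-diluted emulsion at a predetermined rate to 14-day-old plants; evaluation at three weeks.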

[7] = system: blackgrass; assay: Test Example 4: herbicidal effect by soil treatment (Table 19, symbol J); type: in vivo, blackgrass (Alopecurus myosuroides)
Method in brief: as §1

[8] = system: redroot pigweed; assay: Test Example 5: herbicidal effect by foliage application, plastic box (Table 20, symbol N); type: in vivo, redroot pigweed (Amaranthus retroflexus); conditions: foliage application
Method in brief: as §3

[9] = system: Chinese sprangletop; assay: Test Example 3: herbicidal effect by foliage application, Wagner pot (Table 18, symbol D); type: in vivo, chinese sprangletop (Leptochloa chinensis)
Method in brief: as §2

[10] = system: green foxtail; assay: Test Example 5: herbicidal effect by foliage application, plastic box (Table 20, symbol G); type: in vivo, green foxtail (Setaria viridis); conditions: foliage application
Method in brief: as §3

[11] = system: velvetleaf; assay: Test Example 5: herbicidal effect by foliage application, plastic box (Table 20, symbol M); type: in vivo, velvetleaf (Abutilon theophrasti); conditions: foliage application
Method in brief: as §3

[12] = system: velvetleaf; assay: Test Example 4: herbicidal effect by soil treatment (Table 19, symbol M); type: in vivo, velvetleaf (Abutilon theophrasti)
Method in brief: as §1

[13] = system: barnyard grass; assay: Test Example 4: herbicidal effect by soil treatment (Table 19, symbol H); type: in vivo, barnyard grass (Echinochloa crus-galli)
Method in brief: as §1

[14] = system: wild oat; assay: Test Example 5: herbicidal effect by foliage application, plastic box (Table 20, symbol I); type: in vivo, wild oat (Avena fatua); conditions: foliage application
Method in brief: as §3

[15] = system: windgrass; assay: Test Example 5: herbicidal effect by foliage application, plastic box (Table 20, symbol L); type: in vivo, windgrass (Apera spica-venti); conditions: foliage application
Method in brief: as §3

[16] = system: Italian ryegrass; assay: Test Example 4: herbicidal effect by soil treatment (Table 19, symbol K); type: in vivo, Italian ryegrass (Lolium multiflorum)
Method in brief: as §1

[17] = system: false cleavers; assay: Test Example 5: herbicidal effect by foliage application, plastic box (Table 20, symbol Q); type: in vivo, false cleavers (Galium spurium); conditions: foliage application
Method in brief: as §3

[18] = system: persian speedwell; assay: Test Example 5: herbicidal effect by foliage application, plastic box (Table 20, symbol R); type: in vivo, Persian speedwell (Veronica persica); conditions: foliage application
Method in brief: as §3

[19] = system: chickweed; assay: Test Example 5: herbicidal effect by foliage application, plastic box (Table 20, symbol P); type: in vivo, common chickweed (Stellaria media); conditions: foliage application
Method in brief: as §3

[20] = system: blackgrass; assay: Test Example 5: herbicidal effect by foliage application, plastic box (Table 20, symbol J); type: in vivo, blackgrass (Alopecurus myosuroides); conditions: foliage application
Method in brief: as §3

[21] = system: windgrass; assay: Test Example 4: herbicidal effect by soil treatment (Table 19, symbol L); type: in vivo, windgrass (Apera spica-venti)
Method in brief: as §1

[22] = system: lambsquarters; assay: Test Example 5: herbicidal effect by foliage application, plastic box (Table 20, symbol O); type: in vivo, lambsquarters (Chenopodium album); conditions: foliage application
Method in brief: as §3

[23] = system: wild oat; assay: Test Example 4: herbicidal effect by soil treatment (Table 19, symbol I); type: in vivo, wild oat (Avena fatua)
Method in brief: as §1

[24] = system: green foxtail; assay: Test Example 4: herbicidal effect by soil treatment (Table 19, symbol G); type: in vivo, green foxtail (Setaria viridis)
Method in brief: as §1

[25] = system: Italian ryegrass; assay: Test Example 5: herbicidal effect by foliage application, plastic box (Table 20, symbol K); type: in vivo, Italian ryegrass (Lolium multiflorum); conditions: foliage application
Method in brief: as §3

[26] = system: chickweed; assay: Test Example 4: herbicidal effect by soil treatment (Table 19, symbol P); type: in vivo, common chickweed (Stellaria media)
Method in brief: as §1

[27] = system: barnyard grass; assay: Test Example 5: herbicidal effect by foliage application, plastic box (Table 20, symbol H); type: in vivo, barnyard grass (Echinochloa crus-galli); conditions: foliage application
Method in brief: as §3

[28] = system: lambsquarters; assay: Test Example 4: herbicidal effect by soil treatment (Table 19, symbol O); type: in vivo, lambsquarters (Chenopodium album)
Method in brief: as §1

[29] = AAH 80 g/ha, three weeks after application
[30] = amount of applied herbicide 320 g/ha
[31] = AAH 320 g/ha, evaluated three weeks after application

CCCC(=O)Oc1c(OC)nn(C)c(=O)c1-c1c(-c2ccc(OC)c(OC)c2)sc2ccccc12 [1-183]
R: persian speedwell, herbicidal effect rating ([1]; AAH 80 g/ha): 4 (Herbicidal rate of 70% or more and less than 90%) | N: redroot pigweed, herbicidal effect rating ([2]; AAH 80 g/ha): 0 (Herbicidal rate of 5% or less (almost no effect)) | F: southern crabgrass, herbicidal effect rating ([3]; AAH 80 g/ha): 0 (Herbicidal rate of 5% or less (almost no effect)) | herbicidal effect on H (barnyard grass), rating 0-5 ([4]; 80 g/ha): 3 (Herbicidal rate of 40% or more and less than 70%) | herbicidal effect on E (rice flat sedge), rating 0-5 [5]: 0 (Herbicidal rate of 5% or less (almost no effect)) | F: southern crabgrass, herbicidal effect [6, 29]: 1 (Herbicidal rate of 5% or more and less than 20%) | J: blackgrass, herbicidal effect rating ([7]; AAH 80 g/ha): 0 (Herbicidal rate of 5% or less (almost no effect)) | N: redroot pigweed, herbicidal effect [8, 29]: 3 (Herbicidal rate of 40% or more and less than 70%) | herbicidal effect on D (Chinese sprangletop), rating 0-5 ([9]; 80 g/ha): 2 (Herbicidal rate of 20% or more and less than 40%) | G: green foxtail, herbicidal effect [10, 29]: 4 (Herbicidal rate of 70% or more and less than 90%) | M: velvetleaf, herbicidal effect [11, 29]: 1 (Herbicidal rate of 5% or more and less than 20%) | M: velvetleaf, herbicidal effect rating ([12]; AAH 80 g/ha): 0 (Herbicidal rate of 5% or less (almost no effect)) | H: barnyard grass, herbicidal effect rating ([13]; AAH 80 g/ha): 0 (Herbicidal rate of 5% or less (almost no effect)) | I: wild oat, herbicidal effect [14, 29]: 0 (Herbicidal rate of 5% or less (almost no effect)) | L: windgrass, herbicidal effect [15, 29]: 0 (Herbicidal rate of 5% or less (almost no effect)) | K: Italian ryegrass, herbicidal effect rating ([16]; AAH 80 g/ha): 0 (Herbicidal rate of 5% or less (almost no effect)) | Q: false cleavers, herbicidal effect [17, 29]: 2 (Herbicidal rate of 20% or more and less than 40%) | R: persian speedwell, herbicidal effect [18, 29]: 5 (Herbicidal rate of 90% or more (almost completely withered)) | P: chickweed, herbicidal effect [19, 29]: 4 (Herbicidal rate of 70% or more and less than 90%) | J: blackgrass, herbicidal effect [20, 29]: 0 (Herbicidal rate of 5% or less (almost no effect)) | L: windgrass, herbicidal effect rating ([21]; AAH 80 g/ha): 0 (Herbicidal rate of 5% or less (almost no effect)) | O: lambsquarters, herbicidal effect [22, 29]: 3 (Herbicidal rate of 40% or more and less than 70%) | I: wild oat, herbicidal effect rating ([23]; AAH 80 g/ha): 0 (Herbicidal rate of 5% or less (almost no effect)) | G: green foxtail, herbicidal effect rating ([24]; AAH 80 g/ha): 0 (Herbicidal rate of 5% or less (almost no effect)) | K: Italian ryegrass, herbicidal effect [25, 29]: 1 (Herbicidal rate of 5% or more and less than 20%) | P: chickweed, herbicidal effect rating ([26]; AAH 80 g/ha): 3 (Herbicidal rate of 40% or more and less than 70%) | H: barnyard grass, herbicidal effect [27, 29]: 4 (Herbicidal rate of 70% or more and less than 90%) | O: lambsquarters, herbicidal effect rating ([28]; AAH 80 g/ha): 0 (Herbicidal rate of 5% or less (almost no effect))

Cc1nn(C)c(=O)c(-c2c(-c3ccc(S(=O)(=O)C(C)C)cc3)sc3ccc(F)cc23)c1O [2-259]
herbicidal effect on R: persian speedwell [1, 30]: 5 (Herbicidal rate of 90% or more (almost completely withered)) | herbicidal effect on N: redroot pigweed [2, 30]: 4 (Herbicidal rate of 70% or more and less than 90%) | herbicidal effect on F: southern crabgrass [3, 30]: 0 (Herbicidal rate of 5% or less (almost no effect)) | herbicidal effect on H: barnyard grass [4, 30]: 4 (Herbicidal rate of 70% or more and less than 90%) | F: southern crabgrass, herbicidal effect (criteria 0-5) [6, 31]: 4 (Herbicidal rate of 70% or more and less than 90%) | herbicidal effect on J: blackgrass [7, 30]: 4 (Herbicidal rate of 70% or more and less than 90%) | N: redroot pigweed, herbicidal effect (criteria 0-5) [8, 31]: 5 (Herbicidal rate of 90% or more (almost completely withered)) | herbicidal effect on D: Chinese sprangletop [9, 30]: 3 (Herbicidal rate of 40% or more and less than 70%) | G: green foxtail, herbicidal effect (criteria 0-5) [10, 31]: 3 (Herbicidal rate of 40% or more and less than 70%) | M: velvetleaf, herbicidal effect (criteria 0-5) [11, 31]: 4 (Herbicidal rate of 70% or more and less than 90%) | herbicidal effect on M: velvetleaf [12, 30]: 3 (Herbicidal rate of 40% or more and less than 70%) | herbicidal effect on H: barnyard grass [13, 30]: 0 (Herbicidal rate of 5% or less (almost no effect)) | I: wild oat, herbicidal effect (criteria 0-5) [14, 31]: 4 (Herbicidal rate of 70% or more and less than 90%) | L: windgrass, herbicidal effect (criteria 0-5) [15, 31]: 1 (Herbicidal rate of 5% or more and less than 20%) | herbicidal effect on K: Italian ryegrass [16, 30]: 4 (Herbicidal rate of 70% or more and less than 90%) | Q: false cleavers, herbicidal effect (criteria 0-5) [17, 31]: 4 (Herbicidal rate of 70% or more and less than 90%) | R: persian speedwell, herbicidal effect (criteria 0-5) [18, 31]: 5 (Herbicidal rate of 90% or more (almost completely withered)) | P: chickweed, herbicidal effect (criteria 0-5) [19, 31]: 5 (Herbicidal rate of 90% or more (almost completely withered)) | J: blackgrass, herbicidal effect (criteria 0-5) [20, 31]: 4 (Herbicidal rate of 70% or more and less than 90%) | herbicidal effect on L: windgrass [21, 30]: 0 (Herbicidal rate of 5% or less (almost no effect)) | O: lambsquarters, herbicidal effect (criteria 0-5) [22, 31]: 4 (Herbicidal rate of 70% or more and less than 90%) | herbicidal effect on I: wild oat [23, 30]: 0 (Herbicidal rate of 5% or less (almost no effect)) | herbicidal effect on G: green foxtail [24, 30]: 1 (Herbicidal rate of 5% or more and less than 20%) | K: Italian ryegrass, herbicidal effect (criteria 0-5) [25, 31]: 4 (Herbicidal rate of 70% or more and less than 90%) | herbicidal effect on P: chickweed [26, 30]: 1 (Herbicidal rate of 5% or more and less than 20%) | H: barnyard grass, herbicidal effect (criteria 0-5) [27, 31]: 3 (Herbicidal rate of 40% or more and less than 70%) | herbicidal effect on O: lambsquarters [28, 30]: 3 (Herbicidal rate of 40% or more and less than 70%)
